Structures can show the parent of a compound that is named as a salt. Where two headings read alike, the source gives them in different places.
Assays:
[1] = test system: RPMI-8226, H929, MM.1S and MM.1R MM cell lines; assay: Anti-proliferation assay, statements across MM cell lines; format: cell-based, human; conditions: for rank of synergy scores among PDE inhibitors: crossed with adenosine receptor agonists; for activity and synergy of adenosine receptor agonists: RPMI-8226, H929, MM.1S and MM.1R MM cell lines
Protocol: The MM.1S, MM.1R, H929, MOLP-8, EJM, INA-6, ANBL6, KSM-12-PE, OPM2, and RPMI-8226 multiple myeloma cell lines, as well as the Burkitt's lymphoma cell line GA-10 and the non-Hodgkin's lymphoma cell lines Farage, SU-DHL6, and Karpas 422 were cultured at 37° C. and 5% CO2 in RPMI-1640 media supplemented with 10% FBS. ANBL6 and INA-6 culture media was also supplemented with 10 ng/ml IL-6. The OCI-ly10 cell line was cultured using RPMI-1640 media supplemented with 20% human serum. MM.1S, MM.1R, OCI-ly10, Karpas 422, and SU-DHL6 cells were provided by the Dana Farber Cancer Institute. H929, RPMI-8226, GA-10, and Farage cells were from ATCC (Cat #'s CCL-155, CRL-9068, CRL-2392 and CRL-2630 respectively). MOLP-8, EJM, KSM-12-PE, and OPM2 were from DSMZ. The ANBL6 and INA-6 cell lines were provided by the M. D. Anderson Cancer Research Center.
Compounds were prepared in DMSO at 1000× the highest desired concentration. Master plates were generated consisting of serially diluted compounds in 2- or 3-fold dilutions in 384-well format. For single agent dose response curves, the master plates consisted of 9 individual compounds at 12 concentrations in 2- or 3-fold dilutions. For combination matrices, master plates consisted of individual compounds at 6 or 9 concentrations at 2- or 3-fold dilutions.
Cells were added to 384-well plates 24 hours prior to compound addition such that each well contained 2000 cells in 35 μL of media. Master plates were diluted 100× (1 μL into 100 μL) into 384-well dilution plates containing only cell culture media. 4.5 μL from each dilution plate was added to each assay plate for a final dilution of 1000×. To obtain combination data, two master plates were diluted into the assay plates. Following compound addition, assay plates were kept at 37° C. and 5% CO2 for 72 hours. Thirty microliters of ATPLite (Perkin Elmer) at room temperature was then added to each well. Final amount of ATP was quantified within 30 minutes using ATPLite luminescent read-out on an Envision 2103 Multilabel Reader (Perkin Elmer). Measurements were taken at the top of the well using a luminescence aperture and a read time of 0.1 seconds per well.
The Loewe additivity model was used to quantify combination effects. Combinations were ranked initially by Additivity Excess Volume, which is defined as ADD Volume=ΣCX, CY (Idata−ILoewe). where ILoewe(CX, CY) is the inhibition that satisfies (CX/ECX)+(CY/ECY)=1, and ECX,Y are the effective concentrations at ILoewe for the single agent curves. A “Synergy Score” was also used, where the Synergy Score S=log fX log fY ΣIdata(Idata−ILoewe), summed over all non-single-agent concentration pairs, and where log fX,Y is the natural logarithm of the dilution factors used for each single agent. This effectively calculates a volume between the measured and Loewe additive response surfaces, weighted towards high inhibition and corrected for varying dilution factors. An uncertainty σS was calculated for each synergy score, based on the measured errors for the Idata values and standard error propagation.

[2] = test system: human multiple myeloma cells (MM.1S); assay: Anti-proliferation assay (ATPLite, 72 h); format: cell-based; parameters: key to synergy score / synergy (score), PDEi × HE-NECA: S = lnfX·lnfY·ΣIdata(Idata−ILoewe), volume over Loewe additivity; conditions: for synergy (score), PDEi × HE-NECA: 6×6 cross of PDE inhibitor or PDE inhibitor mixture with HE-NECA; for inhibition at 1.17 µM: ADAC 1.17 μM; for inhibition at 3.51 µM: ADAC 3.51 μM; for inhibition at 10.5 µM: ADAC 10.5 μM; for inhibition at 31.6 µM: ADAC 31.6 μM
Procedure, shortened: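 ATPLite luminescence readout; ANBL6 medium + 10 ng/ml IL-6. Single agents tested at 12 concentrations, 2- or 3-fold serial dilutions. % inhibition vs untreated-well mean.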

[3] = PDE inhibitor crossed with (S) ENBA, MM.1S
[4] = PDE inhibitor crossed with Chloro-IB-MECA, MM.1S
[5] = PDE inhibitor crossed with HE-NECA, MM.1S
[6] = in combination with adenosine receptor agonist CGS-21680, MM.1S
[7] = in combination with adenosine receptor agonist HE-NECA, MM.1S
[8] = in combination with adenosine receptor agonist regadenoson, MM.1S
[9] = Homo sapiens, MM1.S, 10 ng/mL IL-6, Trequinsin conc. (μM), read-out: percent inhibition of ATP in MM.1S cells
[10] = Homo sapiens, MM1.S, no IL-6, Trequinsin conc. (μM), read-out: percent inhibition of ATP in MM.1S cells

For `COc1cc(-c2ccc(=O)[nH]n2)ccc1OC(F)F` [Zardaverine, 6-(4-(difluoromethoxy)-3-methoxyphenyl)-3(2H)-Pyridazinone], the “rank of synergy scores among PDE inhibitors” value [1] was “highest synergy scores”, the “synergy (score), PDEi × HE-NECA” value ([2]; MM.1S) was 4.39 and the inhibition at 1.89 µM ([2]; Homo sapiens, MM1.S, Zardaverine 1.89 μM, Cl-IB-MECA conc. (μM), read-out: Percent inhibition of ATP in MM.1S cells) was 0.11%. The inhibition at 3.79 µM ([2]; Homo sapiens, MM1.S, Zardaverine 3.79 μM, Cl-IB-MECA conc. (μM), read-out: Percent inhibition of ATP in MM.1S cells) was -1.8%, the inhibition at 7.58 µM ([2]; Homo sapiens, MM1.S, Zardaverine 7.58 μM, Cl-IB-MECA conc. (μM), read-out: Percent inhibition of ATP in MM.1S cells) was 13% and the inhibition at 15.2 µM ([2]; Homo sapiens, MM1.S, Zardaverine 15.2 μM, Cl-IB-MECA conc. (μM), read-out: Percent inhibition of ATP in MM.1S cells) was 5.1%. The inhibition at 30.3 µM ([2]; Homo sapiens, MM1.S, Zardaverine 30.3 μM, Cl-IB-MECA conc. (μM), read-out: Percent inhibition of ATP in MM.1S cells) was 14%, the synergy score [2, 3] was 2.59 and the synergy score [2, 4] was 3.71. It also gave a synergy score [2, 5] of 4.39, a synergy score [2, 6] of 3.64 and a synergy score [2, 7] of 4.39. The synergy score [2, 8] was 1.45.
For `COc1cc2c(cc1OC)-c1cc(=Nc3c(C)cc(C)cc3C)n(C)c(=O)n1CC2` [Trequinsin hydrochloride, 2,3,6,7-tetrahydro-9,10-dimethoxy-3-methyl-2-((2,4,6-trimethylphenyl)imino)-4H-pyrimido(6,1-a)isoquinolin-4-one], the “rank of synergy scores among PDE inhibitors” value [1] was “highest synergy scores”, the “synergy (score), PDEi × HE-NECA” value ([2]; MM.1S) was 5.7 and the inhibition at 0.377 µM ([2]; Homo sapiens, MM1.S, 10 ng/mL IL-6, Trequinsin 0.377 μM, HE-NECA conc. (nM), read-out: percent inhibition of ATP in MM.1S cells) was -1.2%. For the same compound, the inhibition at 1.13 µM ([2]; Homo sapiens, MM1.S, 10 ng/mL IL-6, Trequinsin 1.13 μM, HE-NECA conc. (nM), read-out: percent inhibition of ATP in MM.1S cells) was 5.1%, the inhibition at 3.39 µM ([2]; Homo sapiens, MM1.S, 10 ng/mL IL-6, Trequinsin 3.39 μM, HE-NECA conc. (nM), read-out: percent inhibition of ATP in MM.1S cells) was 8.9% and the inhibition at 10.2 µM ([2]; Homo sapiens, MM1.S, 10 ng/mL IL-6, Trequinsin 10.2 μM, HE-NECA conc. (nM), read-out: percent inhibition of ATP in MM.1S cells) was 26%. The inhibition at 30.5 µM ([2]; Homo sapiens, MM1.S, 10 ng/mL IL-6, Trequinsin 30.5 μM, HE-NECA conc. (nM), read-out: percent inhibition of ATP in MM.1S cells) was 95%, the inhibition at 0.377 µM ([2]; Homo sapiens, MM1.S, 72 h, trequinsin 0.377 μM alone (HE-NECA 0), 72 h, read-out: Percent inhibition of ATP in MM.1S cells) was 7.4% and the inhibition at 1.13 µM ([2]; Homo sapiens, MM1.S, 72 h, trequinsin 1.13 μM alone (HE-NECA 0), 72 h, read-out: Percent inhibition of ATP in MM.1S cells) was 0.96%. It also gave an inhibition at 3.39 µM ([2]; Homo sapiens, MM1.S, 72 h, trequinsin 3.39 μM alone (HE-NECA 0), 72 h, read-out: Percent inhibition of ATP in MM.1S cells) of 10%, an inhibition at 10.17 µM ([2]; Homo sapiens, MM1.S, 72 h, trequinsin 10.17 μM alone (HE-NECA 0), 72 h, read-out: Percent inhibition of ATP in MM.1S cells) of 26% and an inhibition at 30.5 µM ([2]; Homo sapiens, MM1.S, 72 h, trequinsin 30.5 μM alone (HE-NECA 0), 72 h, read-out: Percent inhibition of ATP in MM.1S cells) of 68%. It also gave a synergy score [2, 3] of 4.56, a synergy score ([2]; PDE inhibitor crossed with ADAC, MM.1S) of 6.62 and a synergy score [2, 4] of 5.95. For the same compound, the synergy score [2, 5] was 7.85, the synergy score ([2]; in combination with adenosine receptor agonist ADAC, MM.1S) was 6.619 and the synergy score [2, 6] was 6.26. For the same compound, the synergy score [2, 7] was 7.235 and the synergy score [2, 8] was 1.85.
For `NCCNC(=O)Cc1ccc(NC(=O)Cc2ccc(Nc3ncnc4c3ncn4[C@@H]3O[C@H](CO)[C@@H](O)[C@H]3O)cc2)cc1` [ADAC, N-(4-(2-((4-(2-((2-aminoethyl)amino)-2-oxoethyl)phenyl)amino)-2-oxoethyl)phenyl)-Adenosine], the “activity and synergy of adenosine receptor agonists” value [1] was “active and synergistic”, the inhibition at 1.17 µM [2, 9] was 79% and the inhibition at 3.51 µM [2, 9] was 81%. The inhibition at 10.5 µM [2, 9] was 85%, the inhibition at 31.6 µM [2, 9] was 83% and the inhibition at […] ([2]; Homo sapiens, MM1.S, 10 ng/mL IL-6, ADAC […], Trequinsin conc. (μM), read-out: percent inhibition of ATP in MM.1S cells) was 61%. The inhibition at 1.975 µM ([2]; Homo sapiens, MM1.S, ADAC 1.975 μM, Trequinsin Hydrochloride conc. (μM), read-out: Percent inhibition of ATP in MM.1S cells) was 37%, the inhibition at 3.95 µM ([2]; Homo sapiens, MM1.S, ADAC 3.95 μM, Trequinsin Hydrochloride conc. (μM), read-out: Percent inhibition of ATP in MM.1S cells) was 49% and the inhibition at 15.8 µM ([2]; Homo sapiens, MM1.S, ADAC 15.8 μM, Trequinsin Hydrochloride conc. (μM), read-out: Percent inhibition of ATP in MM.1S cells) was 66%. The inhibition at 31.6 µM ([2]; Homo sapiens, MM1.S, Trequinsin Hydrochloride conc. (μM), read-out: Percent inhibition of ATP in MM.1S cells) was 60%, the inhibition at 1.17 µM [2, 10] was 49% and the inhibition at 3.51 µM [2, 10] was 57%. The inhibition at 10.5 µM [2, 10] was 66% and the inhibition at 31.6 µM [2, 10] was 60%.
With `CCCCC#Cc1nc(N)c2ncn([C@@H]3O[C@H](C(=O)NCC)[C@@H](O)[C@H]3O)c2n1` [HE-NECA, hexynyladenosine-5′-N-ethylcarboxamide] the “activity and synergy of adenosine receptor agonists” value [1] was “active and synergistic”, the “percent inhibition of ATP in MM.1S cells” value ([2]; HE-NECA 0.0251 μM alone (trequinsin 0), 72 h) was 78% and the “percent inhibition of ATP in MM.1S cells” value ([2]; HE-NECA 0.0752 μM alone (trequinsin 0), 72 h) was 79%. For the same compound, the “percent inhibition of ATP in MM.1S cells” value ([2]; HE-NECA 0.226 μM alone (trequinsin 0), 72 h) was 83%, the “percent inhibition of ATP in MM.1S cells” value ([2]; HE-NECA 0.677 μM alone (trequinsin 0), 72 h) was 80% and the “percent inhibition of ATP in MM.1S cells” value ([2]; HE-NECA 2.03 μM alone (trequinsin 0), 72 h) was 86%.

From patent US20090047243A1, “COMBINATIONS FOR THE TREATMENT OF B-CELL PROLIFERATIVE DISORDERS” (priority 2007, published 2009)
